Data published in the OligoGym collection.
Oligonucleotides are written 5' to 3', each unit as a sugar letter and its base; * is a phosphorothioate linkage, no mark a phosphodiester; rarer units and linkages stand in square brackets, end groups in braces. Plain capitals give the bases only. d = 2'-deoxy (DNA); r = 2'-OH (RNA)

Target: MRFAP1
Test: reporter assay of Huesken 2005
Settings: siRNA
Also: test concentration or dose not given here.

In order of falling normalised inhibition (eCFP-eYFP dual reporter):
1. sense rCrArUrArUrGrUrArGrUrCrArArGrCrUrArUrAdTdT / antisense rUrArUrArGrCrUrUrGrArCrUrArCrArUrArUrGdAdA  101%
2. sense rCrArArArGrGrArGrGrArGrArGrArUrGrUrArUdTdT / antisense rArUrArCrArUrCrUrCrUrCrCrUrCrCrUrUrUrGdGdT  99.2%
3. sense rCrGrGrCrGrGrArArGrUrUrUrUrGrArArGrArCdTdT / antisense rGrUrCrUrUrCrArArArArCrUrUrCrCrGrCrCrGdCdT  94.8%
4. sense rCrCrArGrArGrArGrCrCrUrUrUrGrUrUrUrUrCdTdT / antisense rGrArArArArCrArArArGrGrCrUrCrUrCrUrGrGdTdT  89.6%
5. sense rArCrUrGrArGrArCrUrUrGrGrArGrUrUrGrGrAdTdT / antisense rUrCrCrArArCrUrCrCrArArGrUrCrUrCrArGrUdGdT  88.7%
6. sense rCrCrCrCrUrCrUrGrUrCrUrUrCrArCrUrCrUrGdTdT / antisense rCrArGrArGrUrGrArArGrArCrArGrArGrGrGrGdAdA  87.5%
7. sense rCrCrUrGrCrArArUrGrGrArCrCrCrArArArArCdTdT / antisense rGrUrUrUrUrGrGrGrUrCrCrArUrUrGrCrArGrGdTdT  86.2%
8. sense rArGrUrGrArUrGrGrCrGrArUrUrGrGrCrUrGrAdTdT / antisense rUrCrArGrCrCrArArUrCrGrCrCrArUrCrArCrUdCdA  85.8%
9. sense rArGrGrUrCrArArArArCrCrCrUrUrArCrCrArUdTdT / antisense rArUrGrGrUrArArGrGrGrUrUrUrUrGrArCrCrUdCdA  85.7%
10. sense rArArGrGrUrUrCrArUrArUrGrUrArGrUrCrArAdTdT / antisense rUrUrGrArCrUrArCrArUrArUrGrArArCrCrUrUdGdA  85.4%
11. sense rCrGrGrUrArUrGrGrGrArGrArUrGrArGrGrUrCdTdT / antisense rGrArCrCrUrCrArUrCrUrCrCrCrArUrArCrCrGdGdG  84.8%
12. sense rArCrUrUrCrArArGrGrArArGrArGrGrCrGrUrCdTdT / antisense rGrArCrGrCrCrUrCrUrUrCrCrUrUrGrArArGrUdTdT  82.5%
13. sense rCrArGrGrArGrArUrGrGrCrGrArArGrArUrGrGdTdT / antisense rCrCrArUrCrUrUrCrGrCrCrArUrCrUrCrCrUrGdCdG  81.9%
14. sense rArGrCrUrCrGrUrGrCrGrGrCrGrGrArUrArGrAdTdT / antisense rUrCrUrArUrCrCrGrCrCrGrCrArCrGrArGrCrUdGdC  79.7%
15. sense rCrArUrGrCrArGrCrArArUrGrGrCrArGrArArGdTdT / antisense rCrUrUrCrUrGrCrCrArUrUrGrCrUrGrCrArUrGdGdA  79.1%
16. sense rArUrGrGrCrGrArArGrArUrGrGrCrCrGrArGrAdTdT / antisense rUrCrUrCrGrGrCrCrArUrCrUrUrCrGrCrCrArUdCdT  78.7%
17. sense rArCrCrUrGrGrGrArGrArArGrGrGrUrCrGrGrAdTdT / antisense rUrCrCrGrArCrCrCrUrUrCrUrCrCrCrArGrGrUdCdA  77.6%
18. sense rCrArCrUrGrArGrArCrUrUrGrGrArGrUrUrGrGdTdT / antisense rCrCrArArCrUrCrCrArArGrUrCrUrCrArGrUrGdTdC  77.6%
19. sense rArCrGrCrArGrUrGrGrArGrCrUrGrGrCrGrGrAdTdT / antisense rUrCrCrGrCrCrArGrCrUrCrCrArCrUrGrCrGrUdCdC  76.4%
20. sense rCrArArGrArCrGrCrArGrGrUrArGrArGrGrCrCdTdT / antisense rGrGrCrCrUrCrUrArCrCrUrGrCrGrUrCrUrUrGdAdT  73.2%
21. sense rCrArArArArCrCrCrUrUrArCrCrArUrGrUrUrGdTdT / antisense rCrArArCrArUrGrGrUrArArGrGrGrUrUrUrUrGdAdC  70.3%
22. sense rArArArUrArArCrUrUrUrGrArUrUrUrGrGrArAdTdT / antisense rUrUrCrCrArArArUrCrArArArGrUrUrArUrUrUdTdC  70.2%
23. sense rArCrGrArCrCrUrCrGrArUrArUrGrArGrUrUrUdTdT / antisense rArArArCrUrCrArUrArUrCrGrArGrGrUrCrGrUdCdA  70%
24. sense rCrGrGrGrGrCrArArGrCrUrGrUrGrGrGrArGrAdTdT / antisense rUrCrUrCrCrCrArCrArGrCrUrUrGrCrCrCrCrGdGdT  69.6%
25. sense rArGrArGrGrCrCrUrCrUrGrArGrGrArGrArGrCdTdT / antisense rGrCrUrCrUrCrCrUrCrArGrArGrGrCrCrUrCrUdAdC  69.3%
26. sense rArCrCrUrGrArUrArGrCrUrCrCrCrUrGrArArCdTdT / antisense rGrUrUrCrArGrGrGrArGrCrUrArUrCrArGrGrUdCdA  68.5%
27. sense rCrArCrCrCrUrGrGrArGrArArGrCrUrGrArArAdTdT / antisense rUrUrUrCrArGrCrUrUrCrUrCrCrArGrGrGrUrGdTdC  66.7%
28. sense rArUrCrCrUrUrGrCrArArUrArCrCrCrUrUrUrGdTdT / antisense rCrArArArGrGrGrUrArUrUrGrCrArArGrGrArUdCdT  66.3%
29. sense rArGrUrUrUrCrUrGrCrUrGrCrCrCrGrUrCrArUdTdT / antisense rArUrGrArCrGrGrGrCrArGrCrArGrArArArCrUdGdC  66.2%
30. sense rCrCrCrUrGrUrGrArCrArCrUrGrArGrArCrUrUdTdT / antisense rArArGrUrCrUrCrArGrUrGrUrCrArCrArGrGrGdAdC  65.9%
31. sense rCrCrCrArGrGrGrCrGrGrArGrArArGrGrCrCrGdTdT / antisense rCrGrGrCrCrUrUrCrUrCrCrGrCrCrCrUrGrGrGdGdC  65.6%
32. sense rArArGrGrCrCrGrArCrGrArGrArArGrGrCrGrCdTdT / antisense rGrCrGrCrCrUrUrCrUrCrGrUrCrGrGrCrCrUrUdCdT  63.1%
33. sense rCrUrArGrGrArCrUrGrArUrGrArCrCrUrGrGrGdTdT / antisense rCrCrCrArGrGrUrCrArUrCrArGrUrCrCrUrArGdCdC  63.1%
34. sense rArCrArArGrCrArArArGrCrArGrCrGrGrArGrAdTdT / antisense rUrCrUrCrCrGrCrUrGrCrUrUrUrGrCrUrUrGrUdCdT  62.6%
35. sense rCrArArGrUrUrGrGrUrArUrCrCrCrCrArUrArUdTdT / antisense rArUrArUrGrGrGrGrArUrArCrCrArArCrUrUrGdTdA  62.5%
36. sense rArCrUrCrGrGrCrCrCrGrArGrCrUrCrGrGrUrCdTdT / antisense rGrArCrCrGrArGrCrUrCrGrGrGrCrCrGrArGrUdCdT  61.5%
37. sense rCrCrUrGrCrArGrGrGrCrGrCrGrGrGrCrGrGrCdTdT / antisense rGrCrCrGrCrCrCrGrCrGrCrCrCrUrGrCrArGrGdTdG  60.9%
38. sense rCrCrGrArGrGrArGrGrUrGrGrArGrGrUrGrCrUdTdT / antisense rArGrCrArCrCrUrCrCrArCrCrUrCrCrUrCrGrGdGdC  58.9%
39. sense rCrArCrUrArCrGrUrUrUrCrUrGrCrUrArUrGrGdTdT / antisense rCrCrArUrArGrCrArGrArArArCrGrUrArGrUrGdTdC  58%
40. sense rArArCrCrUrGrCrCrUrGrArUrGrArGrUrUrUrGdTdT / antisense rCrArArArCrUrCrArUrCrArGrGrCrArGrGrUrUdAdT  52%
41. sense rArCrUrUrCrGrArGrCrArGrUrUrUrCrUrGrCrUdTdT / antisense rArGrCrArGrArArArCrUrGrCrUrCrGrArArGrUdCdC  51.4%
42. sense rArArCrUrUrUrGrArUrUrUrGrGrArArArArUrGdTdT / antisense rCrArUrUrUrUrCrCrArArArUrCrArArArGrUrUdAdT  50.3%
43. sense rCrGrGrArArCrCrCrGrGrUrArUrGrGrGrArGrAdTdT / antisense rUrCrUrCrCrCrArUrArCrCrGrGrGrUrUrCrCrGdTdT  49.8%
44. sense rArArArUrUrUrUrArUrGrUrGrCrUrArCrArCrUdTdT / antisense rArGrUrGrUrArGrCrArCrArUrArArArArUrUrUdAdA  46.8%
45. sense rArCrCrUrGrArUrArArGrCrArUrUrUrGrArGrGdTdT / antisense rCrCrUrCrArArArUrGrCrUrUrArUrCrArGrGrUdCdT  46.8%
46. sense rCrCrGrGrGrGrCrArArGrCrUrGrUrGrGrGrArGdTdT / antisense rCrUrCrCrCrArCrArGrCrUrUrGrCrCrCrCrGrGdTdT  44.9%
47. sense rArArGrCrArGrCrGrGrArGrArUrGrCrGrGrCrCdTdT / antisense rGrGrCrCrGrCrArUrCrUrCrCrGrCrUrGrCrUrUdTdG  42.8%
48. sense rArCrUrArUrCrUrArUrUrArUrArArCrCrUrGrCdTdT / antisense rGrCrArGrGrUrUrArUrArArUrArGrArUrArGrUdGdT  42.2%
49. sense rArArGrArUrGrGrCrCrGrArGrArUrGrCrUrGrGdTdT / antisense rCrCrArGrCrArUrCrUrCrGrGrCrCrArUrCrUrUdCdG  33.1%
50. sense rArArCrUrUrUrGrGrGrUrCrCrCrUrGrUrGrArCdTdT / antisense rGrUrCrArCrArGrGrGrArCrCrCrArArArGrUrUdCdA  26.8%
51. sense rArGrGrGrCrGrGrArGrArArGrGrCrCrGrArCrGdTdT / antisense rCrGrUrCrGrGrCrCrUrUrCrUrCrCrGrCrCrCrUdGdG  23.9%
52. sense rCrGrGrArCrGrCrGrCrGrCrCrCrGrUrGrCrGrCdTdT / antisense rGrCrGrCrArCrGrGrGrCrGrCrGrCrGrUrCrCrGdCdG  19.7%
